The target of this test is T1, Recombinant human mPGES-1 (Homo sapiens, UniProt O14684).
T1 sequence (O14684 1-152): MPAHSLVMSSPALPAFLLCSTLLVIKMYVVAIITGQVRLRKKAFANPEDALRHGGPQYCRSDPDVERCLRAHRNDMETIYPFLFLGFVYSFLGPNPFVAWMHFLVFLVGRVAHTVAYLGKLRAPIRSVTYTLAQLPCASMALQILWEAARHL
The test can be described thus: In-vitro mPGES-1 enzyme inhibition assay (PGE2 formation from PGH2, HTRF detection). The format is biochemical. The following applies: for inhibition at 1 µM: 1 μM test compound, read-out: Percentage inhibition at 1 μM; for inhibition at 1 µM / inhibition at 10 µM: recombinant human mPGES-1 microsomal fraction; for inhibition at 10 µM: 10 μM test compound, read-out: Percentage inhibition at 10 μM; for IC50: class symbols, selected examples. The method, boiled down:
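IC50 values were derived by nonlinear regression of percent inhibition relative to enzyme reactions run without inhibitor. PGE2 formed from PGH2 with GSH was quantified by antibody-based HTRF after stannous chloride quench. Enzyme source was human mPGES-1 microsomes at 40-60 μg/mL protein; DMSO 0.5% (v/v).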
(In general: TR-FRET usually uses a lanthanide donor and a delayed reading to cut background.)

Each structure is given as a SMILES string. Where only a bound is given, the exact number is not on record here.

Take `COCCn1c(Nc2c(Cl)cccc2Cl)nc2cc(C(=O)Nc3ccccc3C(F)(F)F)c3c(c21)CC(C)(C)O3` [Example-100, 2-[(2,6-Dichlorophenyl)amino]-1-(2-methoxyethyl)-7,7-dimethyl-N-[2-(trifluoromethyl)phenyl]-7,8-dihydro-1H-furo[3,2-e]benzimidazole-5-carboxamide]: the inhibition at 1 µM turned out to be 96.6%, the inhibition at 10 µM stood at 95.6% and the IC50 is < 50 nM.
With `CC1(C)Cc2c(c(C(=O)Nc3ccc(C(F)(F)F)cn3)cc3nc(Nc4c(Cl)cccc4Cl)[nH]c23)O1` [Example-101, 2-[(2,6-Dichlorophenyl)amino]-7,7-dimethyl-N-[5-(trifluoromethyl)pyridin-2-yl]-7,8-dihydro-1H-furo[3,2-e]benzimidazole-5-carboxamide], the inhibition at 1 µM was found to be 97.6%, the inhibition at 10 µM was 98% and the IC50 is < 50 nM.
Turning to `CC1(C)Cc2c(c(C(=O)Nc3ccc(C(F)(F)F)cc3)cc3nc(Nc4ccccc4C(C)(C)C)[nH]c23)O1` [Example-102, 2-[(2-tert-Butylphenyl)amino]-7,7-dimethyl-N-[4-(trifluoromethyl)phenyl]-7,8-dihydro-1H-furo[3,2-e]benzimidazole-5-carboxamide], the inhibition at 1 µM amounted to 19.3% and the inhibition at 10 µM was determined as 22.8%.
As for `Cc1ccc(Nc2nc3cc(C(=O)Nc4ccc(C(F)(F)F)cc4)c4c(c3[nH]2)CC(C)(C)O4)c(C)n1` [Example-103, 2-[(2,6-Dimethylpyridin-3-yl)amino]-7,7-dimethyl-N-[4-(trifluoromethyl)phenyl]-7,8-dihydro-1H-furo[3,2-e]benzimidazole-5-carboxamide], the inhibition at 1 µM is 7.88% and the inhibition at 10 µM was 25.8%.
For `CC1(C)Cc2c(c(C(=O)Nc3ccc(F)c(C(F)(F)F)c3)cc3nc(Nc4c(F)cccc4Cl)[nH]c23)O1` [Example-104, 2-[(2-Chloro-6-fluorophenyl)amino]-N-[4-fluoro-3-(trifluoromethyl)phenyl]-7,7-dimethyl-7,8-dihydro-1H-furo[3,2-e]benzimidazole-5-carboxamide], the inhibition at 1 µM is 100%, the inhibition at 10 µM was 92% and the concentration for half-maximal inhibition (IC50) was < 50 nM.
Regarding `CC1(C)Cc2c(c(C(=O)Nc3ccc(F)cc3C#N)cc3nc(Nc4c(F)cccc4Cl)[nH]c23)O1` [Example-105, 2-[(2-Chloro-6-fluorophenyl)amino]-N-(2-cyano-4-fluorophenyl)-7,7-dimethyl-7,8-dihydro-1H-furo[3,2-e]benzimidazole-5-carboxamide], the inhibition at 1 µM was 91.2%, the inhibition at 10 µM is 95.5% and the IC50 is > 100 nM.
With `Cc1ccc(Nc2nc3cc(C(=O)Nc4ccccc4C(F)(F)F)c4c(c3[nH]2)CC(C)(C)O4)c(C)n1` [Example-106], the inhibition at 1 µM came to 9.35% and the inhibition at 10 µM worked out at 46.2%.
Regarding `Cc1cccc(Cl)c1Nc1nc2cc(C(=O)Nc3ccc(C(F)(F)F)cc3)c3c(c2[nH]1)CC(C)(C)O3` [Example-108, 2-[(2-Chloro-6-methylphenyl)amino]-7,7-dimethyl-N-[4-(trifluoromethyl)phenyl]-7,8-dihydro-1H-furo[3,2-e]benzimidazole-5-carboxamide], the inhibition at 1 µM is 93.9%, the inhibition at 10 µM came to 96.3% and the IC50 was < 50 nM.
Take `Cc1cccc(Cl)c1Nc1nc2cc(C(=O)Nc3c(F)cc(F)cc3F)c3c(c2[nH]1)CC(C)(C)O3` [Example-109, 2-[(2-Chloro-6-methylphenyl)amino]-7,7-dimethyl-N-(2,4,6-trifluorophenyl)-7,8-dihydro-1H-furo[3,2-e]benzimidazole-5-carboxamide]: the inhibition at 1 µM was determined as 93.8%, the inhibition at 10 µM came out at 98.8% and the IC50 lay in the range of 50 to 100 nM.
`Cc1cccc(Cl)c1Nc1nc2cc(C(=O)Nc3cc(C(F)(F)F)ccc3F)c3c(c2[nH]1)CC(C)(C)O3` [Example-110, 2-[(2-Chloro-6-methylphenyl)amino]-N-[2-fluoro-5-(trifluoromethyl)phenyl]-7,7-dimethyl-7,8-dihydro-1H-furo[3,2-e]benzimidazole-5-carboxamide]: the inhibition at 1 µM turned out to be 96.6%, the inhibition at 10 µM turned out to be 97.2% and the IC50 is < 50 nM.
As to `CC1(C)Cc2c(c(C(=O)Nc3cc(C(F)(F)F)ccc3F)cc3nc(Nc4c(F)cccc4Cl)[nH]c23)O1` [Example-111, 2-[(2-Chloro-6-fluorophenyl)amino]-N-[2-fluoro-5-(trifluoromethyl)phenyl]-7,7-dimethyl-7,8-dihydro-1H-furo[3,2-e]benzimidazole-5-carboxamide], the inhibition at 1 µM is 96.4%, the inhibition at 10 µM amounted to 99.8% and the IC50 is < 50 nM.
As to `CC1(C)Cc2c(c(C(=O)Nc3ccc(C(F)(F)F)cc3F)cc3nc(Nc4c(F)cccc4Cl)[nH]c23)O1` [Example-112, 2-[(2-Chloro-6-fluorophenyl)amino]-N-[2-fluoro-4-(trifluoromethyl)phenyl]-7,7-dimethyl-7,8-dihydro-1H-furo[3,2-e]benzimidazole-5-carboxamide], the inhibition at 1 µM was 96.8%, the inhibition at 10 µM was found to be 96.2% and the IC50 is < 50 nM.
Take `Cc1cc(C(F)(F)F)ccc1NC(=O)c1cc2nc(Nc3c(F)cccc3Cl)[nH]c2c2c1OC(C)(C)C2` [Example-113, 2-[(2-Chloro-6-fluorophenyl)amino]-7,7-dimethyl-N-[2-methyl-4-(trifluoromethyl)phenyl]-7,8-dihydro-1H-furo[3,2-e]benzimidazole-5-carboxamide]: the inhibition at 1 µM stood at 99.4%, the inhibition at 10 µM stood at 98.7% and the IC50 is < 50 nM.
Consider `CC1(C)Cc2c(c(C(=O)Nc3ccc(C(C)(C)C)cc3)cc3nc(Nc4c(F)cccc4Cl)[nH]c23)O1` [Example-114, N-(4-tert-Butylphenyl)-2-[(2-chloro-6-fluorophenyl)amino]-7,7-dimethyl-7,8-dihydro-1H-furo[3,2-e]benzimidazole-5-carboxamide], for which the inhibition at 1 µM was 99.4%, the inhibition at 10 µM was determined as 99.1% and the IC50 was < 50 nM.
As to `CC1(C)Cc2c(c(C(=O)Nc3ccc(OC(F)F)nc3)cc3nc(Nc4c(F)cccc4Cl)[nH]c23)O1` [Example-115, 2-[(2-Chloro-6-fluorophenyl)amino]-N-[6-(difluoromethoxy)pyridin-3-yl]-7,7-dimethyl-7,8-dihydro-1H-furo[3,2-e]benzimidazole-5-carboxamide], the inhibition at 1 µM worked out at 100%, the inhibition at 10 µM was 100% and the IC50 was < 50 nM.
Turning to `CC1(C)Cc2c(c(C(=O)NC3(c4ccc(C(F)(F)F)cc4)CC3)cc3nc(Nc4c(F)cccc4Cl)[nH]c23)O1` [Example-116, 2-[(2-Chloro-6-fluorophenyl)amino]-7,7-dimethyl-N-{1-[4-(trifluoromethyl)phenyl]cyclopropyl}-7,8-dihydro-1H-furo[3,2-e]benzimidazole-5-carboxamide], the inhibition at 1 µM amounted to 96.9%, the inhibition at 10 µM came out at 99.8% and the IC50 is < 50 nM.
With `CC1(C)Cc2c(c(C(=O)Nc3ccc(F)cc3C(F)(F)F)cc3nc(Nc4c(F)cccc4Cl)[nH]c23)O1` [Example-117, 2-[(2-Chloro-6-fluorophenyl)amino]-N-[4-fluoro-2-(trifluoromethyl)phenyl]-7,7-dimethyl-7,8-dihydro-1H-furo[3,2-e]benzimidazole-5-carboxamide], the inhibition at 1 µM worked out at 100%, the inhibition at 10 µM is 98.7% and the IC50 was < 50 nM.
Take `CC1(C)Cc2c(c(C(=O)NC3(c4ccccc4C(F)(F)F)CC3)cc3nc(Nc4c(F)cccc4Cl)[nH]c23)O1` [Example-118, 2-[(2-Chloro-6-fluorophenyl)amino]-7,7-dimethyl-N-{1-[2-(trifluoromethyl)phenyl]cyclopropyl}-7,8-dihydro-1H-furo[3,2-e]benzimidazole-5-carboxamide]: the inhibition at 1 µM came to 97%, the inhibition at 10 µM is 98.7% and the IC50 is > 100 nM.
As for `CC1(C)Cc2c(c(C(=O)Nc3cccc(C(C)(F)F)c3)cc3nc(Nc4c(F)cccc4Cl)[nH]c23)O1` [Example-119, 2-[(2-Chloro-6-fluorophenyl)amino]-N-[3-(1,1-difluoroethyl)phenyl]-7,7-dimethyl-7,8-dihydro-1H-furo[3,2-e]benzimidazole-5-carboxamide], the inhibition at 1 µM is 98.1%, the inhibition at 10 µM came out at 100% and the IC50 was < 50 nM.
In the same order, the values of `Cc1cccc(Cl)c1Nc1nc2cc(C(=O)Nc3cccc(C(C)(F)F)c3)c3c(c2[nH]1)CC(C)(C)O3` [Example-120, 2-[(2-Chloro-6-methylphenyl)amino]-N-[3-(1,1-difluoroethyl)phenyl]-7,7-dimethyl-7,8-dihydro-1H-furo[3,2-e]benzimidazole-5-carboxamide] are 90.5%, 99% and < 50 nM.
For the molecule `CC1(C)Cc2c(c(C(=O)Nc3ccc(Cl)cn3)cc3nc(Nc4c(F)cccc4Cl)[nH]c23)O1` [Example-121, 2-[(2-Chloro-6-fluorophenyl)amino]-N-(5-chloropyridin-2-yl)-7,7-dimethyl-7,8-dihydro-1H-furo[3,2-e]benzimidazole-5-carboxamide], the inhibition at 1 µM stood at 100% and the inhibition at 10 µM stood at 100%.

By inhibition is commonly meant the percentage by which the read-out fell short of the control. By IC50 is commonly meant the concentration that gives 50% inhibition.

The record behind these values is US8519149B2, “Tricyclic compounds as mPGES-1 inhibitors” (Glenmark Pharmaceuticals S.A., priority 2010, dated 2013).
